This note sets out measurements from ChEMBL document CHEMBL4265956, “Discovery of potent and selective Spleen Tyrosine Kinase inhibitors for the topical treatment of inflammatory skin disease” (Bioorg Med Chem Lett, 2018).
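For logD in this document: lipophilicity determined by HPLC.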

The first series is described as follows: Drug uptake in human skin dermal layer administered topically after 6 hrs by LC-MS/MS analysis. The class given is ADME, tissue-based, Dermis. The conditions noted are these: topical_or_ocular.
With `COc1cccc(OCc2cc(C)ccn2)c1-c1ccc2c(c1)CCNCC2`, the Drug uptake came to 0.38 µg.

In turn, `CC(=O)c1ccc(OCc2cc(C)ccn2)c(-c2ccc3c(c2)CCNCC3)c1` came in with a Drug uptake of 0.43 µg.

Another series is described as follows: physchem. The conditions noted are these: buffer, pH 7.4.
Molecule `Cc1ccc(-c2ncccc2OCc2ccccn2)cc1` gave a logD of 4.9.

`COc1cccc(OCc2cc(C)ccn2)c1-c1ccc2c(c1)CCNCC2` displayed a logD of 3.1.

The molecule `Cc1ccnc(COc2ccc(C#N)cc2-c2ccc3c(c2)CCNCC3)c1` showed a logD of 2.8.

The molecule `COc1ccc(-c2cc(C(C)=O)ccc2OCc2cccnn2)cc1` came in with a logD of 4.1.

For the molecule `CC(=O)c1ccc(OCc2ccccn2)c(-c2ccc3c(c2)CNCCC3)c1`, the logD turned out to be 2.3.

Molecule `CC(=O)c1ccc(OCc2ccccn2)c(-c2ccccc2)c1` came in with a logD of 5.

`COc1ccc(-c2cc(C)ccc2OCc2ccccn2)cc1`: the logD was 6.8.

On to `CC(=O)c1ccc(OCc2cc(C)ccn2)c(-c2ccc3c(c2)CCNCC3)c1`, for which the logD was 2.5.

Consider `CC(=O)c1ccc(OCc2ccccn2)c(-c2ccc(CN)cc2)c1`, for which the logD stood at 1.9.

As for `CC(=O)c1ccc(OCc2ccccn2)c(-c2ccc3c(c2)CNC3)c1`, the logD was determined as 2.1.

For the molecule `CC(=O)c1ccc(OCc2ccccn2)c(-c2ccc(F)cc2)c1`, the logD worked out at 5.6.

`CC(=O)c1ccc(OCc2ccccn2)c(-c2ccc(C)cc2)c1` registered a logD of 6.1.

Consider `CCc1ccnc(COc2ccc(C(C)=O)cc2-c2ccc3c(c2)CCNCC3)c1`, for which the logD worked out at 2.8.

`CNC(=O)c1ccc(OCc2cc(C)ccn2)c(-c2ccc3c(c2)CCNCC3)c1` came in with a logD of 1.9.

`COc1ccc(-c2cc(C(C)=O)ccc2OCc2cnccn2)cc1` displayed a logD of 4.7.

Turning to `COc1ccc(-c2ccc3c(c2)CCNCC3)c(OCc2cc(C)ccn2)c1`, the logD came to 3.

Consider `COc1ccc(-c2c(F)cccc2OCc2ccccn2)cc1`, for which the logD was determined as 6.2.

In the case of `COc1cccc(-c2cc(C(C)=O)ccc2OCc2ccccn2)c1`, the logD stood at 5.4.

With `COc1ccc(-c2nc(C)ccc2OCc2ncccc2C)cc1`, the logD turned out to be 5.3.

The molecule `COc1cccc(OCc2cnccn2)c1-c1ccc2c(c1)CCNCC2` registered a logD of 2.2.

On to `COc1ccc(-c2ccc(F)cc2OCc2ccccn2)cc1`, for which the logD came out at 6.6.

As to `CC(=O)c1ccc(OCc2ccccn2)c(-c2cccc(C)c2)c1`, the logD is 6.

Take `COc1ccc(-c2cc(F)ccc2OCc2ccccn2)cc1`: the logD is 6.4.

In turn, `CC(=O)c1ccc(OCc2ccccn2)c(-c2ccc(CCN)cc2)c1` gave a logD of 2.1.

Turning to `COc1ccc(-c2nc(C)ccc2OCc2ccc(C)cn2)cc1`, the logD was determined as 5.5.

In turn, `CC(=O)c1ccc(OCc2ccccn2)c(-c2ccc3c(c2)CCNC3)c1` showed a logD of 2.1.

`COc1ccc(-c2c(C)cccc2OCc2ccccn2)cc1`: the logD was 6.7.

`CC(=O)c1ccc(OCc2ccccn2)c(-c2ccc3c(c2)CCNCC3)c1` displayed a logD of 2.3.

Molecule `CCOc1ccnc(COc2ccc(C(C)=O)cc2-c2ccc3c(c2)CCNCC3)c1` returned a logD of 2.7.

For the molecule `CC(=O)c1ccc(OCc2ccccn2)c(-c2ccc3c(c2)CNCC3)c1`, the logD was determined as 2.2.

`COc1ccc(-c2c(OC)cccc2OCc2ccccn2)cc1` returned a logD of 5.8.

Consider `COc1ccc(-c2cc(C(C)=O)ccc2OCc2ncccn2)cc1`, for which the logD amounted to 4.5.

On to `COc1ccc(-c2cc(C(C)=O)ccc2OCc2ccncn2)cc1`, for which the logD came to 4.5.

Regarding `COc1ccc(-c2nc(C)ccc2OCc2cccc(C)n2)cc1`, the logD worked out at 5.5.

The molecule `COc1ccc(-c2nc(C)ccc2OCc2ccccn2)cc1` returned a logD of 5.

Molecule `COc1ccc(-c2ccccc2OCc2ccccn2)cc1` displayed a logD of 6.2.

With `COc1ccc(-c2nc(C)ccc2OCc2cc(C)ccn2)cc1`, the logD was 5.4.

As to `COc1ccc(-c2cc(OC)ccc2OCc2ccccn2)cc1`, the logD was 6.

In turn, `COc1ccc(-c2cc(C(C)=O)ccc2OCc2ccccn2)cc1` registered a logD of 5.3.

In turn, `COc1ccc(-c2ccc(OC)cc2OCc2ccccn2)cc1` came in with a logD of 6.2.

The molecule `COc1ccc(OCc2cc(C)ccn2)c(-c2ccc3c(c2)CCNCC3)c1` came in with a logD of 3.

Molecule `CC(=O)c1ccc(OCc2ccccn2)c(-c2ccc3c(c2)CCCNC3)c1` showed a logD of 2.3.

`Cc1ccc(-c2ccccc2OCc2ccccn2)cc1` registered a logD of 7.

A short description of the next series: Drug uptake in human skin epidermal layer administered topically after 6 hrs by LC-MS/MS analysis. The class given is ADME, tissue-based, Skin epidermis. The conditions noted are these: topical_or_ocular.
As for `COc1cccc(OCc2cc(C)ccn2)c1-c1ccc2c(c1)CCNCC2`, the Drug uptake came to 9.34 µg.

`CC(=O)c1ccc(OCc2cc(C)ccn2)c(-c2ccc3c(c2)CCNCC3)c1` gave a Drug uptake of 5.52 µg.

The next series can be described thus: Apparent permeability of the compound after 3 hrs by PAMPA. The class given is ADME.
Details: not given
For `COc1ccc(-c2nc(C)ccc2OCc2cc(C)ccn2)cc1`, the Papp at 3 h was determined as 33 ×10⁻⁶ cm/s.

For `Cc1ccnc(COc2ccc(C)nc2-c2ccc3c(c2)CCNCC3)c1`, the Papp at 3 h amounted to 43.5 ×10⁻⁶ cm/s.
